{"source": "patent US5610171A", "about": "“Inhibition of metastasis in patients having cancer with pyridyloxazole-2-ones” (Merrell Pharmaceuticals Inc., priority 1995, dated 1997)", "key": {"[1]": {"system": "membrane-associated PKC", "assay": "PKC activity in membranes of pretreated B16F1 cells", "format": "cell-based, murine", "conditions": "24 hours", "protocol": "(§1) Protein Kinase C Preparation\n(§2) Cytostolic and membrane-associated PKC was prepared as described in Thomas, T. P., Gopalakrishna, R. and Anderson, W. B. Hormone- and tumor promoter-induced activation of membrane association of protein kinase C in intact cells, Methodsin Enzymology, 141: 399-411, 1987. Sub-confluent B16F1 cultures (4×10^7 cells total) were washed twice with phosphate buffered saline (PBS), pH 7.2 and then twice with buffer A (20 mM Tris, pH 7.5, 2 mM EDTA, 0.5 mM EGTA, […], 2 mM phenylmethylsulfonyl fluoride (PMSF), and 2 μg/ml leupeptin). Cells were scraped from the plates in buffer A, homogenized (40 strokes) and sedimented by centrifugation for 1 hour at 100,000 g. The cytosol was stored on ice while the particulate fraction was washed with buffer B (20 mM Tris, pH 7.2, 2 mM EDTA, 0.5 mM EGTA, and 2 mM (PMSF). The membranes were resuspended with buffer B and homogenized with 10 strokes. Nonidet P-40 (1% final concentration) was added and the mixture was incubated for 30 minutes at 4° C. in a rotating mixer. Nonsolubilized material was removed by centrifugation for 10 minutes at 1400 g. Cytostolic and membrane-bound PKC was partially purified by chromatography over 1 ml columns of DE-52 (Whatman) equilibrated with buffer B. The enzyme was applied to the column and washed with 2×3 ml buffer B. Elution of PKC was then effected by the addition of 2 ml buffer B containing 100 mM NaCl.\n(§3) PKC was quantitated as described in Thomas et al., ibid. The assay contained 20 mM Tris (pH 7.5), 0.75 mM CaCl, 10 mM magnesium acetate, […] histone III-S, 0.25 μg/ml leupeptin, 100 μM [gamma-^32 p]-ATP (120 cpm/pmol), 0.96 μg/ml phosphatidylserine, and 0.0064 μg/ml 1,2-diolein in a total assay volume of 250 μl. Blanks contained no calcium or phospholipids. Incubation was for 5 minutes at 30° C. at which point the reaction was terminated by the addition of 1 ml 25% trichloroacetic acid (TCA). Samples were applied to Whatman GF/B filters, the tube rinsed twice with 5% TCA and the filter then washed 5 times with 5% TCA.\nB16F1 cells were incubated with 4-propyl-5(4-\npyridinyl)-2(3H)-oxazolone for 24 hours at 37° C. PKC was\nthen prepared and its activity was measured as described in […]"}, "[2]": {"system": "B16F1 cells", "assay": "Colony forming (clonogenic) assay of B16F1 cells", "format": "cell-based, murine", "conditions": "24 hours", "protocol": "One hundred viable cells, as determined by trypan blue exclusion, were plated per 35 mm dish in MEM and incubated for 24 hours at 37° C. Next, 4-propyl-5(4-pyridinyl)-2(3H)-oxazolone was added and incubation continued for an additional 24 hours, after which the dishes were washed twice with Hank's Balanced Salt Solution (HBSS) and replenished with MEM. Ten days later, colonies with a diameter of 2 mm or greater were counted.\nB16F1 cells (10^2) were plated and incubated for 24\nhours at 37° C. Next, 4-propyl-5(4-pyridinyl)-2(3H)-\noxazolone (compound 1) was added and incubation continued\nfor an additional 24 hours at which time the drug was\nremoved. Ten days later, colonies greater than 2 mm in […]"}, "[3]": {"system": "extracellular matrix/basement membrane proteins", "assay": "Adhesion of B16F1 cells to extracellular matrix/basement membrane proteins", "format": "cell-based, murine", "protocol": "Adhesion of B16F1 Cells to Basement Membrane Proteins\nAdhesion proteins (2 μg/well) were coated onto Immulon I Removawells from Dynatech and incubated for 1 hour at 37° C. The wells were then blocked for 1 hour with 400 μl PBS, pH 7.2 containing 1% bovine serum albumin (BSA) at 37° C. Prior to addition of the cell suspension, the blocking solution was aspirated.\nSub-confluent cells were washed twice with HBSS and removed form flasks by incubation for 10 minutes at 37° C. with PBS (pH 7.2), 2 mM EDTA, and 1% BSA. The cells were washed twice with MEM containing 20 mM HEPES and 0.1% BSA and resuspended in the same medium to give a cell density of […].\nCells were added to wells in 50 μl (5×10^4 cells) and incubated at 37° C. The wells were aspirated and washed three times with 400 μl PBS (pH 7.2) containing 0.1% BSA. Wells were detached and counted in 5 ml Beckman Ready Protein. Blanks were not coated with protein but were blocked with BSA as described above."}, "[4]": {"system": "B16F1 cells / human umbilical vein endothelial cells (HUVEC)", "assay": "Adhesion of B16F1 melanoma cells to endothelial cells (HUVEC)", "format": "cell-based, murine B16F1 cells; human HUVEC", "conditions": "for Adherent B16F1 Cells, Mean +/- SE / activity at 50 µM: 50 μM, 24 hours treatment; for activity at 50 µM: Mus musculus, read-out: B16F1 cells adhered expressed as percent of control", "protocol": "Adhesion of Tumor Cells to Endothelial Cells\nRound 15 mm Thermanox tissue culture cover slips from Lux were placed in Corning 12-well, 22 mm diameter tissue culture clusters. HUVEC (2×10^6) were added to each well and grown to confluency. Sub-confluent B16F1 cells were labeled with 1 μCi/ml [^3 H]-thymidine (New England Nuclear, 78.5 Ci/mmol) for 24 hours at 37° C.\nIn preparation for the adhesion assay, the tissue culture wells containing either HUVEC or no cells were blocked with MEM containing 20 mM HEPES and 1% BSA for 1 hour at 37° C. B16F1 cells were removed from the flasks as described above for adhesion to basement membrane proteins and diluted to a density of 2×10^5 viable cells/ml in MEM (viability determined by trypan blue exclusion).\nBlocking solution was aspirated from the wells and 1 ml of cells were added per well and incubated at 37° C. Nonadherent cells were washed from coverslips as described in Wright, P. S., Cross-Doersen, D., McCann, P. P. and Bitonti, A. J., Plasmodium falciparum: a rapid assay for cytoadherence of [^3 H]-hypoxanthine-labeled infected erythrocytes to human melanoma cells, Exp. Parasitol., 71: 346-349, 1990. Coverslips were retrieved from the well with forceps and dipped 10 times into a beaker of 100 ml MEM. Coverslips were placed into scintillation vials and counted in 10 ml Beckman Ready Protein.\nB16F1 cells were treated with 4-propyl-5(4-pyridinyl)-\n(3H)-oxazolone for 24 hours at 37° C. Cells were then\nharvested and added to wells containing confluent HUVEC\ncells and incubated for the time indicated at 37° C. Details\nare given in Materials and Methods."}, "[5]": {"system": "membrane-associated PKC", "assay": "Inhibition of B16F1 membrane-associated PKC activity", "format": "biochemical, murine", "conditions": "B16F1 membrane fraction", "protocol": "as §1, §2, §3"}}, "note": "“Also recorded” adds a separate entry of the source. Read-outs that look alike come from different tables or passages of the source.", "data": [{"smiles": "CCCc1[nH]c(=O)oc1-c1ccncc1", "note": "[Compound 1, 4-propyl-5(4-pyridinyl)-2(3H)-oxazolone]", "values": [{"measurement": "PKC Activity Ratio membrane/cytosol", "setting": "[1]; 5 μM", "result": 0.29}, {"measurement": "PKC Activity, membrane", "setting": "[1]; 5 μM", "result": "2151 pmol per min per mg protein"}, {"measurement": "PKC Activity Ratio membrane/cytosol", "setting": "[1]; 25 μM", "result": 0.61}, {"measurement": "PKC Activity, membrane", "setting": "[1]; 25 μM", "result": "1511 pmol per min per mg protein"}, {"measurement": "PKC Activity Ratio membrane/cytosol", "setting": "[1]; 50 μM", "result": 0.27}, {"measurement": "PKC Activity, membrane", "setting": "[1]; 50 μM", "result": "1000 pmol per min per mg protein"}, {"measurement": "Colonies per dish, Mean +/- SE", "setting": "[2]; 10 μM", "result": "27 +/- 2 colonies per dish"}, {"measurement": "Colonies per dish, Mean +/- SE", "setting": "[2]; 20 μM", "result": "34 +/- 1 colonies per dish"}, {"measurement": "Colonies per dish, Mean +/- SE", "setting": "[2]; 50 μM", "result": "29 +/- 1 colonies per dish"}, {"measurement": "viability of treated cells (clonogenic assay)", "setting": "[2]", "result": "equivalent to untreated cells"}, {"measurement": "attachment to extracellular matrix/basement membrane proteins", "setting": "[3]; 24 hours", "result": "decreased adhesion to some basement membrane proteins; also recorded: less adherent than untreated cells"}, {"measurement": "potency for inhibition of adhesion relative to H-7", "setting": "[3]; versus H-7", "result": "more potent than H-7"}, {"measurement": "potency for inhibition of adhesion relative to staurosporine", "setting": "[3]; versus staurosporine", "result": "significantly less potent than staurosporine"}, {"measurement": "adherence to HUVEC", "setting": "[4]", "result": "decreased adhesion; also recorded: less adherent"}, {"measurement": "Adherent B16F1 Cells, Mean +/- SE", "setting": "[4]; 5 min adhesion", "result": "4,513 cells"}, {"measurement": "Adherent B16F1 Cells, Mean +/- SE", "setting": "[4]; 10 min adhesion", "result": "7,828 cells"}, {"measurement": "Adherent B16F1 Cells, Mean +/- SE", "setting": "[4]; 20 min adhesion", "result": "48,750 cells"}, {"measurement": "Adherent B16F1 Cells, Mean +/- SE", "setting": "[4]; 30 min adhesion", "result": "92,084 cells"}, {"measurement": "Adherent B16F1 Cells, Mean +/- SE", "setting": "[4]; 60 min adhesion", "result": "136,950 cells"}, {"measurement": "activity at 50 µM", "setting": "[4]; B16-F1, 5 min, 5 min adhesion", "result": 126, "unit": "%"}, {"measurement": "activity at 50 µM", "setting": "[4]; B16-F1, 10 min, 10 min adhesion", "result": 39, "unit": "%"}, {"measurement": "activity at 50 µM", "setting": "[4]; B16-F1, 20 min, 20 min adhesion", "result": 60, "unit": "%"}, {"measurement": "activity at 50 µM", "setting": "[4]; B16-F1, 0.5 h, 30 min adhesion", "result": 71, "unit": "%"}, {"measurement": "activity at 50 µM", "setting": "[4]; B16-F1, 1 h, 60 min adhesion", "result": 110, "unit": "%"}, {"measurement": "IC50", "setting": "[5]", "result": 13, "unit": "µM"}]}]}
